Entries after “also recorded” stand apart in the source; their conditions may differ.
Experiments:
hES cells [1] = assay: Quantification of cardiomyocytes by Cytospin and MF20 staining; type: cell-based, human
Description: (§1) To more accurately determine the number of cardiomyocytes in the differentiated cell population, EBs were collected, washed in PBS^− and incubated with 0.05% Trypsin for 5 min at 37° C. Cell clumps were triturated and incubated for another 5 min at 37° C. Trypsin activity was inactivated with serum containing media and cells were collected via centrifugation at 2500 rpm for 4 min at 4° C. The cell pellet was resuspended in PBS for cell count and cytospun onto glass slides at 500 rpm for 5 min at low acceleration using 1×10^5 cells. Cells were stained immediately (see previous example) and a cell count performed.
(§2) Readouts were performed on day 13: the percentage of beating EBs was defined, the average cell number per well was counted via a cytometer after EBs dissociation with trypsin, the percentage of cardiomyocytes was divined via cytospin followed by cardiomyocyte specific anti α-Myosin Heavy Chain stain (MF20 antibody), and RNA was harvest for qRT-PCR.

hES cells [2] = assay: Cell count per well after EB differentiation
Description: as §1, §2

hES cells [3] = assay: qRT-PCR of cardiac and lineage marker genes in differentiating EBs; type: cell-based, human
Description: RNA extraction: EBs at the end of the twelve day period or as indicated in the text were harvested. All EBs from 3 wells were pooled and washed once in PBS^−. Trizol (Invitrogen) was added before freezing the EBs at −80° C. to enhance cell lysis. Frozen samples were thawed and harshly mixed. Chloroform was added to the sample and incubated for 3 min at room temperature. The sample was centrifuged for 15 min at 13000 rpm at 4° C. and the aqueous phase collected. An equal volume of 70% ethanol was added before the sample was loaded onto an RNeasy mini column (Qiagen). The column was centrifuged for 15 sec at ≧8000 g. The rest of the purification steps were performed according to manufacturer's instructions. RNA was eluted in RNase-free water. 5 μg of the RNA sample were then treated with DNase (Invitrogen) in a volume of 50 μl. The mixture was incubated at room temperature for 30 min and heat inactivated for 10 min at 80° C. before cooling rapidly on ice.
Reverse transcriptase: 5 μg of total RNA was mixed with 2 μl of 3 μg/μl random primers (Invitrogen) in a final volume of 100 μl. 75 μl were reversed transcribed (BioLabs), the remaining 25 μl served as a negative control. Samples were incubated for 1 hour at 37° C. before the reaction was terminated for 5 min at 95° C.
Real-time PCR: The PCR reaction was performed on 100 ng of cDNA, with 15 μl of 2× IQ™ SYBR® Green Supermix (Biorad) in a final reaction volume of 30 μl. To minimize variations in the triplicates, a master mix was prepared containing all reaction components except cDNA. PCR was performed on an iCycler™ (Biorad), annealing at 58° C. for 30 sec, extension at 72° C. for 45 sec, 40 cycles in total. Relative expression values were obtained by normalizing CT values of the tested genes in comparison with CT values of the housekeeping gene α-Actin using the ΔΔ CT method (19). The samples were subjected to PCR amplification with human gene primers including: […]
The samples were subjected to PCR amplification with human gene primers including: […]
The samples were subjected to PCR amplification with human gene primers including MESP1 (sense primer: […]; antisense primer: […]).

hES cells [4] = assay: hES differentiation as embryoid bodies (EBs) in suspension culture, scoring of beating EBs; type: cell-based, human; details: for number of EBs with beating foci: 5 μM in END2-CM, added early (during or shortly after EB formation), day 12, vs END2-CM alone
Description: This method describes hES differentiation through the formation of embryoid bodies (EB) from hES cells grown on MEF. EBs can also be generated from hES grown in feeder free systems. Formed EBs were then cultured in respective media such as SF or END2-CM. […] Enzymatically passaged hES cells grown on feeder cells were washed once with PBS^+ and treated with Collagenase IV (1 mg/ml) for 3-4 min at 37° C. The Collagenase IV solution was replaced by DMEM and the cells were mechanically dissociated with a pipette tip. Cells were then harvested using a cell scraper and the cell suspension was transferred to a 50 ml tube (Falcon). Cell clumps were collected by gravity and the supernatant was aspirated. Cells were resuspended in fresh DMEM medium aiming to uniformly disperse the cell clumps in the suspension. An equal volume of the cell suspension was then transferred to ultra low attachment plates (Costar). […] Alternatively, cells can be seeded into plates under conditions supporting cell adherence to induce differentiation of hES attached to a surface. In suspension culture, EBs were formed in ultra low attachment plates in SF medium over night. After over night incubation SF medium was replace by fresh SF medium or END2-CM respectively for further differentiation. Subsequent medium changes were performed every 3-4 days. Usually, cells were cultured over a period of 12-13 days before the visual analysis of the proportion of beating EBs under a microscope was performed followed by cell collection for additional readouts. Multiple beating areas on single EBs were not counted separately. […] Cell harvest and analysis at time points other then 12-13 days after EB formation is indicated in the respective examples and figures of this embodiment. […] An average value per well was calculated and presented. hES differentiation in suspension culture: EBs were formed in ultra low attachment plates in SF medium over night. After over night incubation SF medium was replace by fresh SF medium or END2-CM. […] Subsequent medium changes were performed every 3-4 days. Usually, cells were cultured over a period of 12-13 days. […] Medium change was performed at day 3, 6 and 9 after EB formation.

hES cells [5] = assay: as above; type: cell-based; details: hES maintained on human feeder (HF), 12 days; END2-CM only, or SB203580 at 5 μM in END2-CM
hES cells [6] = assay: EB morphology, H&E staining on paraffin sections; type: cell-based, human
Description: Paraffin sections: Beating EBs were collected and fixed for 15 min in 10% formalin at room temperature. EBs were then embedded in 1.5% agarose and dehydrated through 70% to 100% ethanol with a last incubation in xylene. The agarose block was then embedded in paraffin. 5 μm thick sections were cut in ribbons, floated on a warm water bath of 45° C., mounted on slides, and left to air dry at 37° C. overnight.
For hES culture on human feeder cells, see Example 2. For Immunohistochemistry performed here, see example 3. H&E staining on Paraffin sections was performed at the BSF facility (Biopolis).

[7] = test system: mouse embryonic carcinoma cell line P19; details: cited from earlier work
[8] = test system: JNK and/or p42/p44 MAP kinase; details: cited from earlier work
hES cells [9] = details: Vitamin C added to the END2-hES co-culture system; cited from earlier work
[10] = Example 5, END2-CM alone, or SB203580 at 5 μM in END2-CM
[11] = high concentration (20 μM) in END2-CM
[12] = inhibitor added day 6 onwards, END2-CM
[13] = 0.2 μM and 2 μM in bSF, 12 days
[14] = END2-CM supplemented with 0.1 mM Vitamin C, day 12

## CC(=O)O [AA, Acetic Acid]
hES cells [1]; 0.5 μM or 5 μM AA in bSFS, day 13
  proportion of cardiomyocytes: slightly increased
hES cells [2]; bSFS + 0.5 μM Acetic Acid (AA)
  day 13 cell count per well of a 6-well plate: 1.18 × 10^6
hES cells [2]; bSFS + 5.0 μM AA
  day 13 cell count per well of a 6-well plate: 1.03 × 10^6
hES cells [3]; 0.5 μM in bSFS vs bSFS alone
  relative expression of α-MHC: about the same
hES cells [3]; 5 μM in bSFS vs bSFS alone
  relative expression of α-MHC: slide increase
hES cells [3]; AA at a 0.5 μM concentration in bSFS (second statement)
  fold increase in relative α-MHC expression: about 2 fold
hES cells [4]; 0.5 μM in bSFS vs bSFS alone
  percentage of beating EBs on day 13: about the same
hES cells [4]; 5 μM in bSFS vs bSFS alone
  percentage of beating EBs on day 13: slide increase

## Oc1ccc(-c2nc(-c3ccncc3)c(-c3ccc(F)cc3)[nH]2)cc1 [SB202190]
hES cells [4]
  number of EBs with beating foci: the same effect; also recorded: comparable cardiogenic effect

## C[S+]([O-])c1ccc(-c2nc(-c3ccc(F)cc3)c(-c3ccncc3)[nH]2)cc1 (centres unmarked) [SB203580, 4-(4-Fluorophenyl)-2-(4-methylsulfinylphenyl)-5-(4-pyridyl)1H-imidazole]
hES cells [5]
  percentage of beating EBs: 60-87%
hES cells [6]; higher concentrations in END2-CM, 12 days
  morphology of EBs: more compact and do not form epithelial visceral endoderm
hES cells [6]; higher doses (>5 μM-25 μM), END2 CM
  appearance of neural progenitor population in EBs: morphological uniform neuroepithelial EBs with clear rosette structure formed
hES cells [6]; serum free condition + 10 μM, 12 days
  neurite-like outgrowth of attached EBs: high number of neurite-like outgrowth
hES cells [1]; 5 μM in END2-CM, day 13
  percentage of cardiomyocytes: slightly elevated
hES cells [1]; 5 μM in bSFS, day 13
  proportion of cardiomyocytes: almost tripled
hES cells [1]; [10]
  cardiomyocytes (MF-20 positive) in EBs at day 12: 21.7%
[7]
  cardiomyocyte differentiation in P19: prevented cardiomyocyte differentiation
[8]
  inhibition of JNK and/or p42/p44 MAP kinase: does not inhibit
hES cells [2]; CM + 5 μM SB203580
  day 13 cell count per well of a 6-well plate: 3.63 × 10^6
hES cells [2]; Example 5, END2-CM alone, or END2-CM supplemented with 5 μM SB203580
  total cell number at day 12: 1.16×10^6 cells/well
hES cells [3]; 5 μM from the start in END2-CM vs END2-CM alone
  expression of cardiac markers at day 12: increased expression
hES cells [3]; 5 μM in END2-CM
  Brachyury expression around day 4: strong upregulation
  expression of skeletal (Myf5), endoderm (Sox17) or neuroectoderm (Sox1) markers: did not induce expression
  expression of the cardiac markers Nkx2.5 and α-MHC at day 12: higher expression
hES cells [3]; 5 and 20 μM in END2-CM
  Brachyury expression: upregulated
hES cells [3]; END2-CM supplemented with 25 μM
  Sox1 expression: significantly expressed
hES cells [3]; Example 7, 5 μM in END2-CM
  α-MHC expression at day 12: increased
hES cells [3]; Example 7, 20 μM in END2-CM
  expression of precardiac mesoderm (Nkx2.5) and cardiac marker genes: reduced
hES cells [3]; SF medium, from 10 μM onwards
  Sox1 expression: upregulated
hES cells [3]; [11]
  Sox1 expression: strongly upregulated
  Sox17 expression at day 12: higher expressed
hES cells [3]; higher concentration (20 μM) in END2-CM
  Mesp1 expression: comparable to EBs grown in SF medium
hES cells [3]; highest concentration (25 μM) in END2-CM
  expression of α-MHC: barely detectable
hES cells [3]; [12]
  expression of α-MHC at day 12: no effect
hES cells [3]; low concentration (5 μM) in END2-CM
  Mesp1 expression: higher expressed
hES cells [3]; over 10 μM in END2-CM
  expression of α-MHC: declined
hES cells [4]
  number of EBs with beating foci: increased
hES cells [4]; 15 μM or more in END2-CM
  beating: declined
hES cells [4]; 20 μM in END2-CM
  formation of beating foci at day 12: almost completely suppressed
hES cells [4]; 25 μM in END2-CM
  beating: no beating detectable
hES cells [4]; END2-CM with SB203580
  size of the contracting area and beating frequency of beating foci: positive effect
hES cells [4]; [10]
  beating EBs at day 12: 78%
hES cells [4]; SF medium supplemented with 5 μM
  beating foci on EBs: beating foci were detected
hES cells [4]; added during the first 3 days of differentiation
  number of beating foci per EB at day 12: remarkable increase
hES cells [4]; hES batches less responsive to END2-CM (below 50% beating), SB203580 in END2-CM
  percentage of beating EBs: more than 60%
hES cells [4]; [12]
  number of beating foci: no effect
hES cells [4]; up to 10 μM in END2-CM, 12 days, vs non-supplemented END2-CM
  number of beating foci: increase

## CCCCC[C@H](O)/C=C/[C@@H]1[C@H]2C/C(=C/CCCC(=O)[O-])O[C@H]2C[C@H]1O.[Na+] [PGI2, (5Z, 9α, 11α, 13E, 15S)-6,9-Epoxy-11,15-dihydroxyprosta-5,13-dien-1-oic acid Sodium salt]
hES cells [3]; [13]
  fold higher relative expression of the cardiac marker α-MHC: 2-3 fold
hES cells [4]; [13]
  fold higher percentage of beating EBs: 3 fold
hES cells [4]; bSF with PGI2 at 0.2 μM and 2 μM
  EB beating levels and marker gene expression levels compared to END2-CM: equivalent or even higher

## O=C1O[C@H]([C@@H](O)CO)C(O)=C1O [Vitamin C]
hES cells [9]
  increase in the number of beating areas: up to 40%
hES cells [3]; [14]
  expression of cardiac specific markers ANF or α-MHC: increased
hES cells [4]; [14]
  increase in the number of beating EBs: up to 20%
